According to article PMC10110893, “[…]-derived synthetic cannabinoids inhibit T-type calcium channels with divergent effects on seizures in rodent models of epilepsy” (Frontiers in Physiology, 2023):

What was measured:
[1] = system: Genetic Absence Epilepsy Rat from Strasbourg (GAERS); test: Spike-and-wave discharges (EEG) in GAERS; format: in vivo
Procedure: GAERS experiments were conducted in accordance with the standards of the Canadian Council on Animal Care and approved by the University of Saskatchewan Animal Research Ethics Board (protocol 20130118). GAERS were initially sourced from the University of Melbourne to establish a Canadian GAERS colony in 2010 ([Powell et al., 2014]) and weanlings were provided by the Snutch Laboratory at the University of British Columbia to the University of Saskatchewan in 2013 (snutchlab.msl.ubc.ca) ([Marks et al., 2016]; [Marks et al., 2019]). GAERS were maintained on a 12 h light/dark cycle with lights on at 0700 and access to food and water ad libitum except during EEG recordings.
GAERS display reliable spike and wave discharges (SWD) characteristic of childhood absence epilepsy (CAE) ([Tringham et al., 2012]; [Marks et al., 2019]; [Roebuck et al., 2021]; [McElroy et al., 2022]; [Roebuck et al., 2022]). Experiments were conducted in male (n = 11; two removed due to poor recording integrity) and female (n = 5) GAERS. Group sizes were determined based on previous experiments and availability of age, sex, and litter matched animals ([Marks et al., 2019]; [McElroy et al., 2022]; [Roebuck et al., 2022]). Animals were well handled and habituated to the recording protocol prior to testing. Baseline recordings were performed prior to sessions with drug treatment and SB2193 (10, 30, 100 mg/kg) or vehicle (5 mL/kg) was administered (i.p.) ∼15–20 min prior to recordings using a within-subjects design (5–7 days washout periods between treatments). SB2193 was freshly prepared in ethanol-Kolliphor (Sigma Aldrich)-saline (1:1:18 ratio).
Construction and implantation of electrodes proceeded according to established protocols ([Farrell et al., 2018]; [Marks et al., 2019]; [McElroy et al., 2022]; [Roebuck et al., 2022]). Surgeries were performed under isoflurane anaesthesia with buprenorphine, anafen, and bupivicaine (topical) used as analgesics. Bipolar electrodes were chronically implanted bilaterally in somatosensory cortex (A/P 0.6 mm, M/L 5.5 mm, D/V −3.0 mm, relative to bregma) ([Polack et al., 2007]). Implants were secured with 3.2 mm stainless steel screws (one served as a ground) and dental cement. Animals were given a 1-week recovery period before habituation and testing.
Following recovery from surgery, animals were handled for 3–4 days and habituated to the EEG tether and hook-up process at least once before baseline recordings. Local field potentials (LFP) were acquired by tethered EEG (Grass Technologies), amplified 5,000x, and digitized at 100 Hz ([Farrell et al., 2018]; [Marks et al., 2019]; [McElroy et al., 2022]; [Roebuck et al., 2022]). Recordings (4 h) were conducted in two clear Plexiglas boxes (32 cm × 32 cm) and treatments were randomized such that each animal received each treatment. During recording sessions, animals were prevented from sleeping with gentle taps on the chamber door as necessary. Animals were perfused to confirm electrode placement following testing.
SWDs were analysed using a custom MATLAB (MathWorks) script developed by Dr. Stuart Cain and Jeff LeDue at the University of British Columbia. SWDs were assessed between 7 and 12 Hz and defined as bursts > 3x baseline amplitude >0.5 s as previously described ([Powell et al., 2014]; [Farrell et al., 2018]; [Marks et al., 2019]; [Roebuck et al., 2021]; [McElroy et al., 2022]; [Roebuck et al., 2022]). SWDs were analysed semi-automatically using Matlab and manually confirmed by a researcher blinded to treatment. A second researcher re-analysed a subset of files and interrater reliability was confirmed. Treatment data are normalized to initial non-treatment baseline data (e.g., % change) to account for SWD variability between subjects. Raw SWD data are also reported for comparison.
Time-binned data were analysed using a two-way analysis of variance (ANOVA) with factors of treatment (vehicle, 10, 30, 100 mg/kg SB2193) and time (1, 2, 3, 4 h post-treatment). […]

[2] = Aqueous solubility (dosing observation); format: physicochemical; details: prevented assessment at doses above 100 mg/kg
Procedure: SB2193 and SB2193F were prepared in ethanol-Tween 80%–0.9% saline (1:1:18 ratio) and valproic acid in 0.9% saline. All doses were completely soluble in this vehicle except for the 100 mg/kg SB2193 dose, which was a suspension.

[3] = 100 mg/kg i.p., 4 h EEG recording
[4] = 30 and 100 mg/kg i.p., 4 h EEG recording

Structure (SMILES): CCCCCn1cc(C(=O)N2CCN(C(=O)OC(C)(C)C)CC2)c2ccccc21 [SB2193]
- SWD incidence, raw count data, compared to vehicle ([1]; 30 mg/kg i.p., 4 h EEG recording): significantly increased
- SWD average duration, raw data, compared to vehicle [1, 3]: significantly increased
- average SWD duration, normalized to baseline, compared to vehicle [1, 3]: increased
- SWD frequency ([1]; 10, 30, 100 mg/kg i.p., 4 h EEG recording): No changes
- effects on SWDs in the first hour following administration ([1]; 10, 30, 100 mg/kg i.p., first hour): No significant effects
- SWD (total) duration, normalized to baseline, compared to vehicle [1, 4]: significantly increased
- SWD incidence, normalized to baseline, compared to vehicle [1, 4]: significantly increased
- SWD total duration, raw data, compared to vehicle [1, 4]: significantly increased
- aqueous solubility [2]: poor aqueous solubility
